# Results reported in ChEMBL document CHEMBL1201862, “PubChem BioAssay data set” (2004).
# Activity calls are given as the source filed them.
# Experiments:
# [1] = inhibitors of Bluetongue virus cytopathic effect, confirmation, arbovirus, BSR cells (AID 1250); type: functional;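 further: protection from viral cytopathic effect measured as cell viability by ATP luminescence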
# [2] = biological target: T1, Apoptotic protease-activating factor 1 (Homo sapiens, UniProt O14727); type: functional
# T1 sequence (O14727 whole entry): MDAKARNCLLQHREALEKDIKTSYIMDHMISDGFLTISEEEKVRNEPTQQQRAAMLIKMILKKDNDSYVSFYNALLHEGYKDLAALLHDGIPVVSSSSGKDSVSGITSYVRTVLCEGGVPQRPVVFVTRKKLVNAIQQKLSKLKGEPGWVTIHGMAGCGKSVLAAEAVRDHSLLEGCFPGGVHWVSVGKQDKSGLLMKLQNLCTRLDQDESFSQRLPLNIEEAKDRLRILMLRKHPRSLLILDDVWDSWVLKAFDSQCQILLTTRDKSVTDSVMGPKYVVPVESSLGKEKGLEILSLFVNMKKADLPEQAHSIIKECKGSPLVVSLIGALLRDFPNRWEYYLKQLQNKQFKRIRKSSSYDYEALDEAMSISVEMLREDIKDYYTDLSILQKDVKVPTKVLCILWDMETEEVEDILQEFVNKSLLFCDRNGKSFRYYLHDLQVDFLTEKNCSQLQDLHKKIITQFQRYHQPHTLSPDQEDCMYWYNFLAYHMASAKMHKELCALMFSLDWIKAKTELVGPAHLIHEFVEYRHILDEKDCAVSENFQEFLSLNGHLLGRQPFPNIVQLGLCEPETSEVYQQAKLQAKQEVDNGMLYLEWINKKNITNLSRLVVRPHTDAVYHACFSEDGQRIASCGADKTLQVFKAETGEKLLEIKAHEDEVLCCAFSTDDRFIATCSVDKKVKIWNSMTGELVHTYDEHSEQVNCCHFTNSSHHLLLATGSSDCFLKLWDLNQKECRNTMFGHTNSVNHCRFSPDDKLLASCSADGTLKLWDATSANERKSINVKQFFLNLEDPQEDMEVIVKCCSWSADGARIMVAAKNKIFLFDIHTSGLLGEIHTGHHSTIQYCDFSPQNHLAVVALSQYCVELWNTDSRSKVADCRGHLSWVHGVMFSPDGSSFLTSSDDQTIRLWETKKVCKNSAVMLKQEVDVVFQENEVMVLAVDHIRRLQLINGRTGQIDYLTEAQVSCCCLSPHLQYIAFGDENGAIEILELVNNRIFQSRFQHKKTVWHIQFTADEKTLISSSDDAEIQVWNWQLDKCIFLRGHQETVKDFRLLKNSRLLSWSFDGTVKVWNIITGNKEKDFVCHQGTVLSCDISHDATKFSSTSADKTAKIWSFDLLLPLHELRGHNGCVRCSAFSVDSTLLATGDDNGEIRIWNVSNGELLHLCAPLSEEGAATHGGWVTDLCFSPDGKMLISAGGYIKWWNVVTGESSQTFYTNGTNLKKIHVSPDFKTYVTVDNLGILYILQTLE
# H9c2 = test: cells; type: functional, cell-based; settings: Rattus norvegicus, H9c2, Myocardium;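 further: confirmatory concentration-response retest of ultra-high-throughput screening hits for modulation of myocardial damage; cell death induced by hydrogen peroxide oxidative stress; compound pretreatment for 60 min then peroxide exposure for 2 h; potency is for protecting the cells against peroxide damage rather than for killing them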
# [3] = biological target: T2, Luciferin 4-monooxygenase (Photinus pyralis, UniProt P08659); test: firefly luciferase enzyme inhibitors, dose response, biochemical, luminescence (AID 1891)
# [4] = biological target: T3, Neuropeptide Y receptor type 1 (Homo sapiens, UniProt P25929); type: functional;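 further: HEK293 cells with a CNG channel challenged with NPY then isoproterenol; potency as antagonist that reverses NPY suppression of cAMP signal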
# T3 sequence (P25929 whole entry): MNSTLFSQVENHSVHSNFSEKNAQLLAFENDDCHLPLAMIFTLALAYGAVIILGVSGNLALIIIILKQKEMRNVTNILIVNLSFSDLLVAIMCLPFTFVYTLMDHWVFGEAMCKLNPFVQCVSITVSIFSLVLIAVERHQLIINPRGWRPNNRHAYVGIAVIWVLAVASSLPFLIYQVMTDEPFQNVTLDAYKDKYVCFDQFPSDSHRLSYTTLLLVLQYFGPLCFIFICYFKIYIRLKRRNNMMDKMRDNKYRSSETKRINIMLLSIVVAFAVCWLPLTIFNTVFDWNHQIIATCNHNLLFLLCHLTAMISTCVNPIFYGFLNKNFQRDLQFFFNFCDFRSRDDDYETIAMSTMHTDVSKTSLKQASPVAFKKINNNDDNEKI
# [5] = Luminescence Cell-Based Dose Confirmation HTS to Identify Inhibitors of Platelet Dense Granule Release. [Related pubchem assays: 1663 (Primary HTS), 1678 (Summary of Project)]; type: functional
# [6] = biological target: T4, Neuropeptide Y receptor type 2 (Homo sapiens, UniProt P49146); type: functional, cell-based;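 further: HEK293 cells expressing the receptor and a CNG channel; stimulus was NPY near EC95 followed by isoproterenol to raise cAMP; antagonist potency measured as restoring cAMP signal that NPY suppresses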
# T4 sequence (P49146 whole entry): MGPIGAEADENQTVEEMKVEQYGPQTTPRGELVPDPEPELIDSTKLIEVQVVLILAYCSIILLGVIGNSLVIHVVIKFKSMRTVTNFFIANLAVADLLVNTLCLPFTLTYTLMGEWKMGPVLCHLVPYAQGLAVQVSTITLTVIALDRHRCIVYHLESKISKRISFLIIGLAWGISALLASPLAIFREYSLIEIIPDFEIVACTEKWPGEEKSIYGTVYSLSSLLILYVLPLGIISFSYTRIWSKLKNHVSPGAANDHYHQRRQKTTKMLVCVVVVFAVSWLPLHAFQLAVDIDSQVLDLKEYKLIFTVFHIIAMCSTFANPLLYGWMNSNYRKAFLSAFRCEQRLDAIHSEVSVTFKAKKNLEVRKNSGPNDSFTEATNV
# Aminopeptidase N = biological target: T5, Aminopeptidase N (Plasmodium falciparum FcB1/Columbia, UniProt O96935); test: P. falciparum M1AAP inhibitors, biochemical, fluorogenic H-Leu-NHMec substrate, 1536-well (AID 1445); set-up: species or system Plasmodium falciparum 3D7, 3D7
# T5 sequence (O96935 whole entry): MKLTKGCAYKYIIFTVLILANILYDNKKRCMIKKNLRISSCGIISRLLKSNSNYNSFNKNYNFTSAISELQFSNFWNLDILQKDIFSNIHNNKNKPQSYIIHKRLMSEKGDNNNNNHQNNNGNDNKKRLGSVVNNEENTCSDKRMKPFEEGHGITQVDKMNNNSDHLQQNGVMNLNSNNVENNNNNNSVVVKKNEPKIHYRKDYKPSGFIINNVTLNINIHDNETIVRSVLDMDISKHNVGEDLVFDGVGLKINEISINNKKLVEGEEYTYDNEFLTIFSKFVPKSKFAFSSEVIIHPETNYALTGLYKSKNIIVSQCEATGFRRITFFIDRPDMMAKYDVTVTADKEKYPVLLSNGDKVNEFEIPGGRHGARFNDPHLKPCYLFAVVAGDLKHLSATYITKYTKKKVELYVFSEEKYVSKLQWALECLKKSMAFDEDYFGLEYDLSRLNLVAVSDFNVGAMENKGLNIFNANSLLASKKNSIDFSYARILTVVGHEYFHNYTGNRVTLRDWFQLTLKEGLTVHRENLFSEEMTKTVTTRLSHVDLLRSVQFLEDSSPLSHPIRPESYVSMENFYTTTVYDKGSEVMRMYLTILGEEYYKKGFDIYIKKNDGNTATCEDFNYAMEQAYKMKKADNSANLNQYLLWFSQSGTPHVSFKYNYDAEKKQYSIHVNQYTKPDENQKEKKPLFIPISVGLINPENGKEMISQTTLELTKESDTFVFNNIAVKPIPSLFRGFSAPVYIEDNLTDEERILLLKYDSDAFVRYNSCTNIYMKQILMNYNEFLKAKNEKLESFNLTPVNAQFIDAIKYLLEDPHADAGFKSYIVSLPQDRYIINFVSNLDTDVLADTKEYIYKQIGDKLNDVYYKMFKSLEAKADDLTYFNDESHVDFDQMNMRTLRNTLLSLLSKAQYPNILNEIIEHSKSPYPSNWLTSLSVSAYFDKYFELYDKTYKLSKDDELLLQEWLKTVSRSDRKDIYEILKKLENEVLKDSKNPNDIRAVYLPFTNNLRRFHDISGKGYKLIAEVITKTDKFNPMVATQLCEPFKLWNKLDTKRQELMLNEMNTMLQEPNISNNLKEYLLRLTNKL
# Aspartyl aminopeptidase = biological target: T6, Aspartyl aminopeptidase (Plasmodium falciparum 3D7, UniProt Q8I2J3); test: Counterscreen for inhibitors of M1 and M17 aminopeptidases: QFRET-based biochemical high throughput dose response assay for inhibitors of the Plasmodium falciparum M18 Aspartyl Aminopeptidase (PFM18AAP). [Related PubChem assays: 1619 (Screening assay (M17LAP inhibitors).), 1445 (Screening assay (M1AAP inhibitors).)]
# T6 sequence (Q8I2J3 whole entry): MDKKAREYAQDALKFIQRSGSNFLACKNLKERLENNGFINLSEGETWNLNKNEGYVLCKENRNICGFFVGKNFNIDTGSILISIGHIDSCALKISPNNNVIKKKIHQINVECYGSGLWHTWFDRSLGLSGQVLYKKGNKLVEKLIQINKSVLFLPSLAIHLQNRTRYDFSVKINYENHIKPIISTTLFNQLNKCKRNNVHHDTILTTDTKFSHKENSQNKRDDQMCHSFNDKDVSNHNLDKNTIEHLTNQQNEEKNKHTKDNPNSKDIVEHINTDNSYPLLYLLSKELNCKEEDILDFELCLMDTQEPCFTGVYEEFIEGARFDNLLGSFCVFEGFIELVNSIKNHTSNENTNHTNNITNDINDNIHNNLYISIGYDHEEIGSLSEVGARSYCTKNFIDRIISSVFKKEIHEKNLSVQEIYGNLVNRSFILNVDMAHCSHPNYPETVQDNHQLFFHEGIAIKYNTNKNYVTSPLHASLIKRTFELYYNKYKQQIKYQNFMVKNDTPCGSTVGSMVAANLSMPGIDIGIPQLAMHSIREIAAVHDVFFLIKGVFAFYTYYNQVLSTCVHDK
# Procathepsin L = Procathepsin L (Homo sapiens, UniProt P07711); test: cathepsin L inhibitors, dose response, counter-screen for M1/M17 aminopeptidase inhibitor project, biochemical, QFRET, 1536-well (AID 2214)
# HT-1080 = test: cytotoxicity in HT1080 fibrosarcoma cells, cell-based, fluorescence readout (AID 620); type: functional; settings: Homo sapiens
# [7] = biological target: T2, Luciferin 4-monooxygenase; test: Counter Screen for Luciferase-based Assay Positives. [Related pubchem assays: 620, 618, 411 ]
# [8] = test system: Streptococcus sp. 'group A'; test: growth inhibition of control SK(-) GAS strain, dose response, counter-screen for streptokinase expression inhibitor project, luminescence, kanamycin, BacTiterGlo, confirmation (AID 1900); type: functional, organism-based
# Streptococcus = test: Group A Streptococcus viability loss, dose response, counter-screen for streptokinase expression inhibitor project, luminescence, BacTiterGlo (AID 1915); type: functional, organism-based;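 further: potency for reduction of bacterial viability or growth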
# Leucine aminopeptidase = biological target: T7, Leucine aminopeptidase (Plasmodium falciparum 3D7, UniProt Q8IL11); test: P. falciparum M17LAP inhibitors, primary screen, biochemical, fluorogenic H-Leu-NHMec substrate, 1536-well (AID 1619); type: functional
# T7 sequence (Q8IL11 whole entry): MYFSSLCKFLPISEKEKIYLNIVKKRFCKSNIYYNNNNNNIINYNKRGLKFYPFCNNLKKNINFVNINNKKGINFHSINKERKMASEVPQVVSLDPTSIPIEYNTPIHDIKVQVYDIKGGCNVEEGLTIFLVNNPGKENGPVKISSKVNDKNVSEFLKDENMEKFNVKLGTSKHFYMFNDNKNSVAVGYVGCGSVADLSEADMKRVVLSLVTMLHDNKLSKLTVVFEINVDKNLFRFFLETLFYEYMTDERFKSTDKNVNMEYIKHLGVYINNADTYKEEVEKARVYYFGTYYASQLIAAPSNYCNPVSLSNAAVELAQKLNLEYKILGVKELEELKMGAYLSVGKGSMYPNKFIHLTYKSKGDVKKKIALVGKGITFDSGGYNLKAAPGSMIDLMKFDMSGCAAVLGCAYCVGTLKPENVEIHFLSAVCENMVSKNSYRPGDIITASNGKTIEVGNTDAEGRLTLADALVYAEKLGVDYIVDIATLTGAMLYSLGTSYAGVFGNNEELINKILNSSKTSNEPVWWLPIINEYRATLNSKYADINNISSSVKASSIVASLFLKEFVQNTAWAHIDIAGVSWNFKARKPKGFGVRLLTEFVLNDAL
# Streptokinase A = biological target: T8, Streptokinase A (Streptococcus pyogenes serotype M1, UniProt P10520); test: S. pyogenes streptokinase expression inhibitors, potency, dose response, plasminogen activation absorbance, OD405 (AID 1914); type: functional, Streptococcus pyogenes M1 GAS;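 further: secreted streptokinase activity via plasminogen activation per viability signal from cell pellet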
# T8 sequence (P10520 whole entry): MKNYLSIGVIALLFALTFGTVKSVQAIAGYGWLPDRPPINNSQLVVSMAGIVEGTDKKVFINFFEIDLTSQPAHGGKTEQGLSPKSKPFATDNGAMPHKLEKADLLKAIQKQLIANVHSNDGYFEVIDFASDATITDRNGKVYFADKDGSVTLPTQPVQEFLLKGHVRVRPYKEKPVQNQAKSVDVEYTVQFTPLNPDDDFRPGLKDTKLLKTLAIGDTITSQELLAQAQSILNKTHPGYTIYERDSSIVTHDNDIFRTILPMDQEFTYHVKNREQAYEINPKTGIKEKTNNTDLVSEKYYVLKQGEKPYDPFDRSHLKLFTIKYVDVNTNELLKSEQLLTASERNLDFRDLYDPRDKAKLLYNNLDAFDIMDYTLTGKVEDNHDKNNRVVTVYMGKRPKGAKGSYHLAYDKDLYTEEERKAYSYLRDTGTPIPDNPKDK
# [9] = cytotoxicity in KRAS-transformed pancreatic duct cells, primary screen, cell-based, fluorescence, HTS (AID 431); type: functional; settings: Homo sapiens;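 further: cell line used: HPDE-C7K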
# [10] = cytotoxicity in HPDE-C7 cells, cell-based, fluorescence, HTS (AID 430); type: functional; settings: Homo sapiens
# Procathepsin L, sequence (P07711 whole entry): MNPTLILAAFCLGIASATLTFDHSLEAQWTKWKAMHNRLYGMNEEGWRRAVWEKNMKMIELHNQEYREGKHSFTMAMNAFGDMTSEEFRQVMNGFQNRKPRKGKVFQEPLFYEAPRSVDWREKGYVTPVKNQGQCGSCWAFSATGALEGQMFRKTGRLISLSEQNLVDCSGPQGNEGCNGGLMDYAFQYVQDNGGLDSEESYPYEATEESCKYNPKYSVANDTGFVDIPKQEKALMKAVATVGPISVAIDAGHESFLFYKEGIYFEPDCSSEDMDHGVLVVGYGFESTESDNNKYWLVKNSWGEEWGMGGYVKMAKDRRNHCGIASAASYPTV
# T2 sequence (P08659 whole entry): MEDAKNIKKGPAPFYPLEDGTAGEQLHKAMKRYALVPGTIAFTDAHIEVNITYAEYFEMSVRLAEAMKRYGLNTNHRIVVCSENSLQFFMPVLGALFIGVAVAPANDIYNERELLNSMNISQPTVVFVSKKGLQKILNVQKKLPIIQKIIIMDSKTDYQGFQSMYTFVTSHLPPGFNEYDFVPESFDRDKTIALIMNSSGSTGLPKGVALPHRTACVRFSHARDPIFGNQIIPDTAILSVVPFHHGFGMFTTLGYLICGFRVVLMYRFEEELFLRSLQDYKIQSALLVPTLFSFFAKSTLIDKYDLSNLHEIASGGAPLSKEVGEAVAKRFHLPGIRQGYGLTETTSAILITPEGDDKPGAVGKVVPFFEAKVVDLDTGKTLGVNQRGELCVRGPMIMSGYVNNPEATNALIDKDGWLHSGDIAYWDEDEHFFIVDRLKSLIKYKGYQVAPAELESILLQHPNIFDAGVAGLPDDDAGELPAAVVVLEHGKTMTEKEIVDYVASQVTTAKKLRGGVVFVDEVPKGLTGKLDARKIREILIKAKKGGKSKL
compound,measurement,setting,value
COc1ccc(-c2cc(-c3ccc(Br)cc3)nc3ncnn23)cc1OC,IC50,[1],52.8 µM (active)
Cc1ccc(-c2nn3c(C)nnc3c3ccccc23)cc1S(=O)(=O)NC(C)c1ccccc1 (stereo unspecified),IC50,[2],7.48 µM (active)
same,IC50,H9c2,35.8 µM (inactive)
same,EC50,[3],> 112 µM (not active)
same,IC50,[4],20.3 µM (not active)
same,EC50,[5],> 112 µM (not active)
same,IC50,[6],10.4 µM (not active)
CC(C)(C)c1nc2ccccc2c(=O)n1N1C(=O)c2ccccc2C1=O,IC50,Aminopeptidase N,16.1 µM (active)
same,IC50,Aspartyl aminopeptidase,> 73.5 µM (not active)
same,IC50,Procathepsin L,> 59.6 µM (not active)
Oc1cc(CSc2nnnn2-c2ccccc2)nc(Nc2ccc(F)cc2)n1,IC50,[1],38.2 µM (active)
COC(=O)c1ccc(-c2nc3cc(N)ccc3o2)cc1,EC50,HT-1080,> 50 µM (not active)
same,EC50,[7],0.2 µM (active)
Cn1c(O)cc(=O)nc1SCC(=O)Nc1cccc2ccccc12,EC50,[8],> 150 µM (not active)
same,EC50,Streptococcus,24.8 µM (active)
same,IC50,Leucine aminopeptidase,7.59 µM (active)
same,IC50,Aspartyl aminopeptidase,> 73.5 µM (not active)
same,EC50,Streptokinase A,> 150 µM (not active)
same,IC50,Procathepsin L,> 59.6 µM (not active)
O=c1c2ccccc2[nH]c(=S)n1CCN1CCC(=C(c2ccc(F)cc2)c2ccc(F)cc2)CC1 [DIACYLGLYCEROL KINASE INHIBITOR II],EC50,[9],4.21 µM (active)
same,EC50,[10],3.94 µM (active)
